Results as given in ChEMBL document CHEMBL5291721, “A preclinical secondary pharmacology resource illuminates target-adverse drug reaction associations of marketed drugs” (Nat Commun, 2023).

What was measured:
[1] = target: T1, Alpha-2A adrenergic receptor (Homo sapiens, UniProt P08913)
T1 sequence (P08913 whole entry): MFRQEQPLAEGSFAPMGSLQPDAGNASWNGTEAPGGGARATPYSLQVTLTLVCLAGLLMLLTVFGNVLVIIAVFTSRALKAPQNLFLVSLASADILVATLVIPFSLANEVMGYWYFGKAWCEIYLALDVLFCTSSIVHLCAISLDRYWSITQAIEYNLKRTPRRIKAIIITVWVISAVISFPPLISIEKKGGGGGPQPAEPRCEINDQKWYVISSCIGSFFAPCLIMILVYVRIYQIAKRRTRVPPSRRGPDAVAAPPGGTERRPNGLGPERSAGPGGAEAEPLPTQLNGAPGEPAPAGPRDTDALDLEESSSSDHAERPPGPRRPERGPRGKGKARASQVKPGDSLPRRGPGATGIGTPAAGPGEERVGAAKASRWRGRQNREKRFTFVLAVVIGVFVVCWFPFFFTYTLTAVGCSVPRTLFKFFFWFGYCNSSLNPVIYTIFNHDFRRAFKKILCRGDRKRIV

[2] = target: D(1A) dopamine receptor (Homo sapiens, UniProt P21728)
[3] = target: T2, Glucocorticoid receptor (Homo sapiens, UniProt P04150); format: functional
T2 sequence (P04150 whole entry): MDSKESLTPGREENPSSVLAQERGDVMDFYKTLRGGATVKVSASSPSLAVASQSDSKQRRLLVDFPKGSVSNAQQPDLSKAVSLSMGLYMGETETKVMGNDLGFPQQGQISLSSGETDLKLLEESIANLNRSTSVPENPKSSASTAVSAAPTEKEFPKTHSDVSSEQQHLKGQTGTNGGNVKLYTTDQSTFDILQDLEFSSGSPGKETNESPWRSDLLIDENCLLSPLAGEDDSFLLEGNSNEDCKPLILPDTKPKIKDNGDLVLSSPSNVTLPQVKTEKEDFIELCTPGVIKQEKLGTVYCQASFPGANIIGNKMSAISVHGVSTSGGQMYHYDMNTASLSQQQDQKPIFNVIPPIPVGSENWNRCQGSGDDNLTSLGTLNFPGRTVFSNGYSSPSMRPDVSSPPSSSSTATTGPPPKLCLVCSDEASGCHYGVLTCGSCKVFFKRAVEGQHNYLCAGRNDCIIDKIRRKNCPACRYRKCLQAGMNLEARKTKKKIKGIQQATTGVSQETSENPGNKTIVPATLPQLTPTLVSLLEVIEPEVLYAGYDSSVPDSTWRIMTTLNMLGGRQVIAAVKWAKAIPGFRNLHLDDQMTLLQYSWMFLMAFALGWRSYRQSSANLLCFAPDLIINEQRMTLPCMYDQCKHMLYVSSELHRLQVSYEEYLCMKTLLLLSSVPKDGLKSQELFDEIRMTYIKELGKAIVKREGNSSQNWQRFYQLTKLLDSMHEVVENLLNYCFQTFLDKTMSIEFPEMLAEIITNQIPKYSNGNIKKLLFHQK

[4] = target: T3, D(4) dopamine receptor (Homo sapiens, UniProt P21917)
T3 sequence (P21917 whole entry): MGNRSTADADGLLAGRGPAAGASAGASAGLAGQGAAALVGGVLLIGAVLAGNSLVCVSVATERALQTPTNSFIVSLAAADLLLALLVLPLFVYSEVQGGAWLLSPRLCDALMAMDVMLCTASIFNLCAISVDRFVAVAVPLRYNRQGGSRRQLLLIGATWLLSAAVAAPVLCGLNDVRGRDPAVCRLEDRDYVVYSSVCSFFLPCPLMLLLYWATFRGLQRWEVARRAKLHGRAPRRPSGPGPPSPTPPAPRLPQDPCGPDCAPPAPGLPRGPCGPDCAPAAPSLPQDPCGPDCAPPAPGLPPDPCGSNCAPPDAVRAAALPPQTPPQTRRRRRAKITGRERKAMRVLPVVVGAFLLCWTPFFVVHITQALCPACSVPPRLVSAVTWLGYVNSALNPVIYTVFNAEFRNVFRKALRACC

[5] = target: T2, Glucocorticoid receptor; format: functional; remark: listed apart in the source
[6] = target: T4, Thromboxane A2 receptor (Homo sapiens, UniProt P21731); format: functional, cell-based
T4 sequence (P21731 whole entry): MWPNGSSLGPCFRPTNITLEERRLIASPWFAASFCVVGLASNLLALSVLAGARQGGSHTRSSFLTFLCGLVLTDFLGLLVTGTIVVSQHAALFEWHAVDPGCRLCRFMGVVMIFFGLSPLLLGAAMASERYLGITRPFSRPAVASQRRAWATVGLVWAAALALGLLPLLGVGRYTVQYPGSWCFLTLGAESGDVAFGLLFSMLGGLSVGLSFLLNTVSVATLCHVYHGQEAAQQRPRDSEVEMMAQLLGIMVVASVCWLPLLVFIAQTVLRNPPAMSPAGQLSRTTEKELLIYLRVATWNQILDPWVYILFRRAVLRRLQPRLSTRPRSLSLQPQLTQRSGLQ

[7] = target: Receptor tyrosine-protein kinase erbB-2 (Homo sapiens, UniProt P04626); format: functional
[8] = target: Epidermal growth factor receptor (Homo sapiens, UniProt P00533); format: functional
[9] = target: Acetylcholinesterase (Homo sapiens, UniProt P22303); format: functional
[10] = target: T5, Alpha-1A adrenergic receptor (Homo sapiens, UniProt P35348)
T5 sequence (P35348 whole entry): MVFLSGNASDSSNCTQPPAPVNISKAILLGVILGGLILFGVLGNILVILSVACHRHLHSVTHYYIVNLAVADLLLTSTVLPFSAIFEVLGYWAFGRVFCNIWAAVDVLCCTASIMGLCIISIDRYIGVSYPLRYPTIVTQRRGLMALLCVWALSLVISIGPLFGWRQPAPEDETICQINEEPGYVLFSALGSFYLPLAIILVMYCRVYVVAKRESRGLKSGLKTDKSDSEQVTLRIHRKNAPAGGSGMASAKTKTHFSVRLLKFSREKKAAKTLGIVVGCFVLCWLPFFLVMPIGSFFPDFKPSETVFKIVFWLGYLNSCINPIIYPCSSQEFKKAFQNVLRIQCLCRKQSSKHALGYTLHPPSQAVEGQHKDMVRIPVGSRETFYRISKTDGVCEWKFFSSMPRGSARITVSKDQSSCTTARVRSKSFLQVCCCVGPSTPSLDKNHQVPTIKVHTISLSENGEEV

[11] = target: Hydroxycarboxylic acid receptor 2 (Homo sapiens, UniProt Q8TDS4)
Also: assay procedure not described here.

D(1A) dopamine receptor, sequence (P21728 whole entry): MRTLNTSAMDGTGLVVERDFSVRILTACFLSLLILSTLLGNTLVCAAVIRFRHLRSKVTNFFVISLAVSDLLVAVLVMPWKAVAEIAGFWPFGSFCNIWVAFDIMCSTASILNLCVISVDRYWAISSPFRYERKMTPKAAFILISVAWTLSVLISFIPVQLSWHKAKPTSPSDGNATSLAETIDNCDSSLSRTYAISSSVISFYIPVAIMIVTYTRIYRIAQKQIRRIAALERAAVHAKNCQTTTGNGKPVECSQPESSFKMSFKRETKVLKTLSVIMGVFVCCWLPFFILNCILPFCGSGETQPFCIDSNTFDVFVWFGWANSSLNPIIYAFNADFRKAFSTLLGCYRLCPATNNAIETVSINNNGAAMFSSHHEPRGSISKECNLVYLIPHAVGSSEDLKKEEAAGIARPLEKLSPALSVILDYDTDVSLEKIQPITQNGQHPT
Hydroxycarboxylic acid receptor 2, sequence (Q8TDS4 whole entry): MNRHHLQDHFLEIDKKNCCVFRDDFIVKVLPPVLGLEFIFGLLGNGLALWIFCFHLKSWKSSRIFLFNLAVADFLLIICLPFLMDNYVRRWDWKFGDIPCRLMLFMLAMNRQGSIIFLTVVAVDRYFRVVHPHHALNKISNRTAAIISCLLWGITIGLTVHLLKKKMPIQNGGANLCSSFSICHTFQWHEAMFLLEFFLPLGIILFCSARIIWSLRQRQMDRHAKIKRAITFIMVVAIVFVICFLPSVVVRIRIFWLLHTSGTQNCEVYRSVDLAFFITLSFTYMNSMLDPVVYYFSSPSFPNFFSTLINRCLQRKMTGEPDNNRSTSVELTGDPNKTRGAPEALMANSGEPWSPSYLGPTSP
Epidermal growth factor receptor, sequence (P00533 whole entry): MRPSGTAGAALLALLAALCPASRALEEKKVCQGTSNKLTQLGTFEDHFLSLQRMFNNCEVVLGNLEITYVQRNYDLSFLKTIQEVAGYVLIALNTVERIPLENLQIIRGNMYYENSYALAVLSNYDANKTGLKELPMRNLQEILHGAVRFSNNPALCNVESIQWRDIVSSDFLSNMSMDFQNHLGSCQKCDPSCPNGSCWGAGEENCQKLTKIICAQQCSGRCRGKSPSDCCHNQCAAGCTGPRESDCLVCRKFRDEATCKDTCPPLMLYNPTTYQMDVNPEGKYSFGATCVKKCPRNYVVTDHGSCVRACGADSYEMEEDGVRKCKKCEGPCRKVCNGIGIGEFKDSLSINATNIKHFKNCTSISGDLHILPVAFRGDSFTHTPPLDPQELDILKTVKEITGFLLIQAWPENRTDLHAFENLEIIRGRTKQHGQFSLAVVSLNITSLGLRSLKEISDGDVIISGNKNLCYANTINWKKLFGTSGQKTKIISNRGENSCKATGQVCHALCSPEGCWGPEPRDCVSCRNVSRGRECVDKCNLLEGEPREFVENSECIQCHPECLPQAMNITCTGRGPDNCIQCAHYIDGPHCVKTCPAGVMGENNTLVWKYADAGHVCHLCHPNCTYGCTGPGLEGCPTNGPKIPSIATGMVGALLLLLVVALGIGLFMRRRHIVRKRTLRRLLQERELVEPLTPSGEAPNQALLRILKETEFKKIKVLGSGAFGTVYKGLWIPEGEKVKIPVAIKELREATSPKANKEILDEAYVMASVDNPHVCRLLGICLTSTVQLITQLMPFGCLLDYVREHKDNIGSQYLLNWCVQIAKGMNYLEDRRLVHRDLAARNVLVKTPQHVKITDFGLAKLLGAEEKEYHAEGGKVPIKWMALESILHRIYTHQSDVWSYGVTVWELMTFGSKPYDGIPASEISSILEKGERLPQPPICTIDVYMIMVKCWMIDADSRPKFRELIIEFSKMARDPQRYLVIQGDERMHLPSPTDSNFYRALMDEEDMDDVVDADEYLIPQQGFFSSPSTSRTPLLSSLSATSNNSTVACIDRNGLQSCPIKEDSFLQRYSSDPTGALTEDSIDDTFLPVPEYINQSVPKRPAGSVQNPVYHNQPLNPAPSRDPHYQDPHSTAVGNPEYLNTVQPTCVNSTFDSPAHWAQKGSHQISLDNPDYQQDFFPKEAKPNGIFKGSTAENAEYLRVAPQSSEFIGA
Acetylcholinesterase, sequence (P22303 whole entry): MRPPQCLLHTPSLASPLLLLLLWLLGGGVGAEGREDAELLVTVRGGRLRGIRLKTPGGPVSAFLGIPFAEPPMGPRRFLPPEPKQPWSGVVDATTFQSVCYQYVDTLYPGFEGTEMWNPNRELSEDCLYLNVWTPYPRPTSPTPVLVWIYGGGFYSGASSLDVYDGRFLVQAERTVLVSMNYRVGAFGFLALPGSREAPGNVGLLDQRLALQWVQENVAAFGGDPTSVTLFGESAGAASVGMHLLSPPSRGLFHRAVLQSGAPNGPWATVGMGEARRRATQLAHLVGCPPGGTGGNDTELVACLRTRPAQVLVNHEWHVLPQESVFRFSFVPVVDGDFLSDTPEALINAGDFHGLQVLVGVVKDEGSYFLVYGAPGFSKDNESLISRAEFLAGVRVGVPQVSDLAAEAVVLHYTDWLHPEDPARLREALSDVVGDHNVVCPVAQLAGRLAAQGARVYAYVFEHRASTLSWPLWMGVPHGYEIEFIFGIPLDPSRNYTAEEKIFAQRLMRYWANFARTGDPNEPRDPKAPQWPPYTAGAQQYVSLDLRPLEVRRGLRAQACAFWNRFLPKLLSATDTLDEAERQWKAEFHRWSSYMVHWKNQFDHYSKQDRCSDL
Receptor tyrosine-protein kinase erbB-2, sequence (P04626 whole entry): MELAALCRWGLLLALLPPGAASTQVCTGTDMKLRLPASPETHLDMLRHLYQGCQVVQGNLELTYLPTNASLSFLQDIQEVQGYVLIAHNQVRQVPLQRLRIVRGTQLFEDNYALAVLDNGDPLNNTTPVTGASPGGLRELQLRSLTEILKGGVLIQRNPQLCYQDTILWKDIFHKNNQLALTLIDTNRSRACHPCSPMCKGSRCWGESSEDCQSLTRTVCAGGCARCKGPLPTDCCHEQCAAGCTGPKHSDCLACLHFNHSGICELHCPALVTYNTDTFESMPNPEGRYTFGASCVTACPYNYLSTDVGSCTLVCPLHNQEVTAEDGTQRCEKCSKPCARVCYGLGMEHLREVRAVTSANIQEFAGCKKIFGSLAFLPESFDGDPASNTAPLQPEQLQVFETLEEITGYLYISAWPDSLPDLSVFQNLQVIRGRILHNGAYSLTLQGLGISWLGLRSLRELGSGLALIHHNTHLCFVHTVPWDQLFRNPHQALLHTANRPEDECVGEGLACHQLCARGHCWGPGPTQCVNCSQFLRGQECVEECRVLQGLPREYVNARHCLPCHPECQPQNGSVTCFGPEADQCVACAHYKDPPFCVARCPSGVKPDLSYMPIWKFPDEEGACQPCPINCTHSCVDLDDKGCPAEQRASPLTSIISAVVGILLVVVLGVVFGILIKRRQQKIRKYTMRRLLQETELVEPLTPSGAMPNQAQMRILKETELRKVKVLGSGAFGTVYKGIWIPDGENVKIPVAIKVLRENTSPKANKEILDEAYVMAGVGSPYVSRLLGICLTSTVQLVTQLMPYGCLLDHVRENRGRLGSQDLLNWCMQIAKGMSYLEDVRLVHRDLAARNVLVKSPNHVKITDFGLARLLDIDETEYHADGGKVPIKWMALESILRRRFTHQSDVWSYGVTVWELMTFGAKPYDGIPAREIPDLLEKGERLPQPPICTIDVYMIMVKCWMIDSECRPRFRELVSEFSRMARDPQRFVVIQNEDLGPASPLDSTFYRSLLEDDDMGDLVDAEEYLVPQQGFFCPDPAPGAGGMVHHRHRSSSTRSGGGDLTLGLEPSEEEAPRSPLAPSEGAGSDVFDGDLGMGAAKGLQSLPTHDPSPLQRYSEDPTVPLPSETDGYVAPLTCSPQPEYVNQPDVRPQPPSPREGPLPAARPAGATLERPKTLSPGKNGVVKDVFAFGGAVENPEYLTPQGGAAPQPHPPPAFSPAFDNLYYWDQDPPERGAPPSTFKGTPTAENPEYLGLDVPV

| Structure (SMILES) | AC50 [1] | AC50 [2] | AC50 [3] | AC50 [4] | AC50 [5] | other results |
| --- | --- | --- | --- | --- | --- | --- |
| CCOc1nc2cccc(C(=O)O)c2n1Cc1ccc(-c2ccccc2-c2nnn[nH]2)cc1 | > 10 µM | > 10 µM | > 30 µM | > 10 µM | > 30 µM | – |
| CCCc1nc2c(C)cc(-c3nc4ccccc4n3C)cc2n1Cc1ccc(-c2ccccc2C(=O)O)cc1 | > 30 µM | > 10 µM | > 30 µM | > 10 µM | > 30 µM | – |
| CCOc1cc([C@@H](CS(C)(=O)=O)N2C(=O)c3cccc(NC(C)=O)c3C2=O)ccc1OC | – | – | > 30 µM | – | > 30 µM | AC50 [6]: > 30 µM; AC50 [7]: > 30 µM; AC50 [8]: > 30 µM; AC50 [9]: > 30 µM |
| Nc1c(CC(=O)O)cccc1C(=O)c1ccc(Br)cc1 [BROMFENAC] | – | – | – | – | – | AC50 [10]: > 30 µM |
| Cc1nnc(SCC2=C(C(=O)O)N3C(=O)[C@@H](NC(=O)Cn4cnnn4)[C@H]3SC2)s1 [CEFAZOLIN] | – | – | – | – | – | AC50 [6]: > 300 µM; AC50 [7]: > 300 µM; AC50 [8]: > 300 µM; AC50 [9]: > 300 µM |
| CC(C)(O/N=C(\C(=O)N[C@@H]1C(=O)N2C(C(=O)[O-])=C(C[n+]3ccccc3)CS[C@H]12)c1csc(N)n1)C(=O)O [CEFTAZIDIME] | – | – | > 300 µM | – | > 300 µM | AC50 [6]: > 300 µM; AC50 [7]: > 300 µM; AC50 [8]: > 3 µM; AC50 [9]: > 300 µM |
| CC(C)NC(=N)NC(=N)Nc1ccc(Cl)c(Cl)c1 [CHLORPROGUANIL] | – | – | – | – | – | AC50 [10]: 2.74 µM |
| Clc1ccc(Cn2c(CN3CCCC3)nc3ccccc32)cc1 [CLEMIZOLE] | – | – | > 30 µM | – | > 30 µM | AC50 [6]: > 10 µM; AC50 [7]: > 30 µM; AC50 [8]: > 30 µM; AC50 [9]: > 30 µM |
| Cc1nc(Nc2ncc(C(=O)Nc3c(C)cccc3Cl)s2)cc(N2CCN(CCO)CC2)n1 [DASATINIB] | > 10 µM | > 10 µM | – | > 10 µM | – | – |
| CC(C)Cc1ccc([C@H](C)C(=O)O)cc1 [DEXIBUPROFEN] | – | – | > 30 µM | – | > 30 µM | – |
| O=C(O)Cc1ccccc1Nc1c(Cl)cccc1Cl [DICLOFENAC] | > 10 µM | > 10 µM | – | > 10 µM | – | – |
| CN[C@@H]1[C@H](O[C@H]2[C@H](O[C@H]3[C@H](O)[C@@H](O)[C@H](NC(=N)N)[C@@H](O)[C@@H]3NC(=N)N)O[C@@H](C)[C@]2(O)CO)O[C@@H](CO)[C@H](O)[C@H]1O [DIHYDROSTREPTOMYCIN] | – | – | – | – | – | AC50 [10]: > 30 µM |
| O=C(O)Cc1ccccc1Oc1ccc(Cl)cc1Cl [FENCLOFENAC] | > 10 µM | > 10 µM | – | > 10 µM | – | AC50 [11]: > 10 µM |
| Cc1onc(-c2c(F)cccc2Cl)c1C(=O)N[C@@H]1C(=O)N2[C@@H]1SC(C)(C)[C@@H]2C(=O)O [FLOXACILLIN] | – | – | > 30 µM | – | > 30 µM | AC50 [6]: > 30 µM; AC50 [7]: > 30 µM; AC50 [8]: > 30 µM; AC50 [9]: > 30 µM |
| Cc1ccc(C)c(OCCCC(C)(C)C(=O)O)c1 [GEMFIBROZIL] | > 10 µM | > 10 µM | – | > 10 µM | – | AC50 [11]: > 10 µM |
| C#C[C@]1(O)C=C[C@H]2[C@@H]3CCC4=CC(=O)CC[C@@H]4[C@H]3CC[C@@]21CC [GESTODENE] | – | – | – | – | – | AC50 [10]: > 30 µM |
| COc1cc(C(C)=O)ccc1OCCCN1CCC(c2noc3cc(F)ccc23)CC1 [ILOPERIDONE] | 0.176 µM | 0.0684 µM | > 30 µM | 0.0209 µM | > 30 µM | – |
| CC[C@H](C)C(=O)O[C@H]1C[C@@H](C)C=C2C=C[C@H](C)[C@H](CC[C@@H]3C[C@@H](O)CC(=O)O3)[C@H]21 [LOVASTATIN] | > 10 µM | > 10 µM | – | > 10 µM | – | AC50 [11]: > 10 µM |
| CC[C@@H](CO)NC(=O)[C@@H]1C=C2c3cccc4c3c(cn4C)C[C@H]2N(C)C1 [METHYSERGIDE] | 2.42 µM | – | – | – | – | – |
| CC(CN1c2ccccc2Sc2ccccc21)N(C)C (stereo not given) [PROMETHAZINE] | – | 3.38 µM | – | – | – | AC50 [10]: 0.03 µM; AC50 [11]: > 10 µM |
| CN(CCOc1ccc(CC2SC(=O)NC2=O)cc1)c1ccccn1 (stereo not given) [ROSIGLITAZONE] | > 30 µM | > 10 µM | – | > 10 µM | – | – |
| S=P(N1CC1)(N1CC1)N1CC1 [THIOTEPA] | – | – | > 30 µM | – | > 30 µM | AC50 [6]: > 30 µM; AC50 [7]: > 30 µM; AC50 [8]: > 30 µM; AC50 [9]: > 30 µM |
| C[C@]12C=CC(=O)C=C1CC[C@H]1[C@@H]3C[C@@H](O)[C@](O)(C(=O)CO)[C@@]3(C)C[C@H](O)[C@@]12F [TRIAMCINOLONE] | – | – | > 30 µM | – | 1.2 µM | – |
| CC(C)C[C@H](NC(=O)[C@@H](O)[C@H](N)Cc1ccccc1)C(=O)O [UBENIMEX] | – | – | – | – | – | AC50 [10]: > 30 µM |
| CC(C)[C@H](N)C(=O)OCCOCn1cnc2c(=O)[nH]c(N)nc21 [VALACYCLOVIR] | > 10 µM | > 10 µM | – | > 10 µM | – | AC50 [11]: > 10 µM |
| COc1cc(C(=O)NS(=O)(=O)c2ccccc2C)ccc1Cc1cn(C)c2ccc(NC(=O)OC3CCCC3)cc12 [ZAFIRLUKAST] | – | – | > 30 µM | – | > 30 µM | – |
| O=C1Cc2cc(CCN3CCN(c4nsc5ccccc45)CC3)c(Cl)cc2N1 [ZIPRASIDONE] | – | – | – | – | – | AC50 [11]: > 10 µM |
